Structures are written as SMILES. Structures can show the parent of a compound that is named as a salt.

The source of these data is US9260408B2, “Dihydroquinoline-2-one derivatives” (Hoffmann-La Roche Inc., priority 2011, dated 2016).

For one assay, the target named is T1, human CYP11B2 (Homo sapiens, UniProt P19099).
T1 construct: expressed in transfected cells
T1 sequence (P19099 25-503): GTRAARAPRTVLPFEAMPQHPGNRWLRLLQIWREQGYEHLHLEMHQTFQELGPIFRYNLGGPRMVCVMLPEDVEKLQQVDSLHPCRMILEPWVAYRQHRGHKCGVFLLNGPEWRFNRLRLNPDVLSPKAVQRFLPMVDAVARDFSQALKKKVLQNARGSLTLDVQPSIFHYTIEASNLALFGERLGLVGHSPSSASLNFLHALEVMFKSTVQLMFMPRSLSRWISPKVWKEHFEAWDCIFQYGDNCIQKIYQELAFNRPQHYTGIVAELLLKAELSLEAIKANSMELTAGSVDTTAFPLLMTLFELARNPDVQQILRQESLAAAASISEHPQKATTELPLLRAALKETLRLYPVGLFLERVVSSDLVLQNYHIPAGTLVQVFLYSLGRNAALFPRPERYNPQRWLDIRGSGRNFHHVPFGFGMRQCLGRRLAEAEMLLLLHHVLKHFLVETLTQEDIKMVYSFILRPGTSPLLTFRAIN
Kind of assay: G-402 cellular enzyme assay, human CYP11B2 (aldosterone release, HTRF). Type of assay: cell-based. The note with it: G-402 cells expressing human CYP11B2; 1 μM Deoxycorticosterone. In a few lines: (§1)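 EC50 comes from least-squares fitting of a 4-parameter MMF curve to steroid product levels, measured by HTRF as aldosterone for CYP11B2 or cortisol for CYP11B1. Stably transfected G-402 host cells were given substrate (1 μM deoxycorticosterone or deoxycortisol, respectively) with inhibitor for 16 h in medium with 2.5% charcoal-treated FCS.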
A general note: In TR-FRET formats the signal depends on donor and acceptor labels being close together.

The target in the next assay is T2, human CYP11B1 (Homo sapiens, UniProt P15538).
T2 construct: expressed in transfected cells
T2 sequence (P15538 25-503): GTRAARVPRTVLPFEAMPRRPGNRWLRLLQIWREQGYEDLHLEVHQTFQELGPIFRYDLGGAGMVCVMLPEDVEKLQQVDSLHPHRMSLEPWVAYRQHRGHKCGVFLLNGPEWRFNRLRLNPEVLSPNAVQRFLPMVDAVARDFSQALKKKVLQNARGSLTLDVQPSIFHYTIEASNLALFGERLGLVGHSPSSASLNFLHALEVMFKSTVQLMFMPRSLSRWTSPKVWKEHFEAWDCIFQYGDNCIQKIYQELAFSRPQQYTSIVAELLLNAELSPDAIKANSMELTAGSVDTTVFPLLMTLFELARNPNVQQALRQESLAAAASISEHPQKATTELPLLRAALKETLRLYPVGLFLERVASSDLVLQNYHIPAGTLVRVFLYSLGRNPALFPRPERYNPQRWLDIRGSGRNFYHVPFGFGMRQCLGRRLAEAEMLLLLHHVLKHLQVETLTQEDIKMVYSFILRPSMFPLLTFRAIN
Description: G-402 cellular enzyme assay, human CYP11B1 (cortisol release, HTRF). Type of assay: cell-based. The note with it: G-402 cells expressing human CYP11B1; 1 μM Deoxycortisol. In a few lines:
as §1

As for `CN1C(=O)CCc2cc(-c3cncc(OC4CCNCC4)c3)ccc21` [Example 62, 1-Methyl-6-[5-(piperidin-4-yloxy)-pyridin-3-yl]-3,4-dihydro-1H-quinolin-2-one hydrochloride], the 50% effective concentration (EC50) (as a rule, the concentration that produces a half-maximal response) on human CYP11B2 is 0.177 µM; on human CYP11B1, 8.54 µM.
The like results for `Cc1oncc1C(=O)NCc1cncc(-c2cc3c(cc2F)N(C)C(=O)CC3)c1C` [Example 259, 5-Methyl-isoxazole-4-carboxylic acid [5-(7-fluoro-1-methyl-2-oxo-1,2,3,4-tetrahydro-quinolin-6-yl)-4-methyl-pyridin-3-ylmethyl]-amide] were, in that order, 0.001 µM and 0.154 µM.
The like results for `CN1C(=O)CCc2cc(-c3cncc(C4=CCN(C(=O)OC(C)(C)C)CC4)c3)ccc21` [Example 247, 5-(1-Methyl-2-oxo-1,2,3,4-tetrahydro-quinolin-6-yl)-3′,6′-dihydro-2′H-[3,4′]bipyridinyl-1′-carboxylic acid tert-butyl ester] were, in that order, 0.005 µM and 0.069 µM.
The like results for `CN1C(=O)CCc2cc(-c3cncc(CNC(=O)c4nc(Cl)ccc4Cl)c3)ccc21` [Example 116] were, in that order, 0.003 µM and 0.081 µM.
For the compound `CN1C(=O)CCc2cc(-c3cncc(CNC(=O)c4ccccn4)c3)ccc21` [Example 97], the EC50 at human CYP11B2 came out at 0.006 µM; on human CYP11B1 it was 0.111 µM.
For `CN1C(=O)CCc2cc(-c3cncc(N4CCC[C@H]4CO)c3)ccc21` [Example 5, 6-[5-((S)-2-Hydroxymethyl-pyrrolidin-1-yl)-pyridin-3-yl]-1-methyl-3,4-dihydro-1H-quinolin-2-one], the EC50 was determined as 0.019 µM on human CYP11B2 and 1.08 µM at human CYP11B1.
With `CN1C(=O)CCc2cc(-c3cncc(CNC(=O)c4cn(CC(F)(F)F)nc4C4CC4)c3)ccc21` [Example 96], the EC50 at human CYP11B2 worked out at 0.022 µM; at human CYP11B1, 1.68 µM.
The like results for `COc1ccc(S(=O)(=O)NCc2cncc(-c3ccc4c(c3)CCC(=O)N4C)c2)cn1` [Example 153, 6-Methoxy-pyridine-3-sulfonic acid [5-(1-methyl-2-oxo-1,2,3,4-tetrahydro-quinolin-6-yl)-pyridin-3-ylmethyl]-amide] were, in that order, 0.375 µM and 11.1 µM.
The like results for `CCS(=O)(=O)NC(C)c1cncc(-c2cc3c(cc2F)N(C)C(=O)CC3)c1` (racemic) [Example 178, (rac)-Ethanesulfonic acid {1-[5-(7-fluoro-1-methyl-2-oxo-1,2,3,4-tetrahydro-quinolin-6-yl)-pyridin-3-yl]-ethyl}-amide] were, in that order, 0.01 µM and 0.535 µM.
The like results for `CCS(=O)(=O)NCc1cncc(-c2cc(Cl)c3c(c2)CCC(=O)N3C)c1` [Example 209, Ethanesulfonic acid [5-(8-chloro-1-methyl-2-oxo-1,2,3,4-tetrahydro-quinolin-6-yl)-pyridin-3-ylmethyl]-amide] were, in that order, 0.162 µM and 7.54 µM.
Turning to `CN1C(=O)CCc2cc(-c3cncc(O[C@H]4CC[C@H](NS(C)(=O)=O)CC4)c3)ccc21` [Example 245, N-{(trans)-4-[5-(1-Methyl-2-oxo-1,2,3,4-tetrahydro-quinolin-6-yl)-pyridin-3-yloxy]-cyclohexyl}-methanesulfonamide], the half-maximal effective concentration (EC50) at human CYP11B2 was 0.001 µM; on human CYP11B1, 0.072 µM.
Take `Cc1nc(C(=O)NCc2cncc(-c3ccc4c(c3)CCC(=O)N4C)c2)co1` [Example 109]: the EC50 at human CYP11B2 was found to be 0.078 µM; on human CYP11B1, 0.712 µM.
The like results for `CN(Cc1cncc(-c2ccc3c(c2)CCC(=O)N3C)c1)C(=O)c1cnn(C)c1` [Example 198, 1-Methyl-1H-pyrazole-4-carboxylic acid methyl-[5-(1-methyl-2-oxo-1,2,3,4-tetrahydro-quinolin-6-yl)-pyridin-3-ylmethyl]-amide] were, in that order, 0.007 µM and 0.188 µM.
`Cc1c(-c2ccc3c(c2)CCC(=O)N3C)cncc1C(C)N` (single isomer, unassigned) [Example 240, 6-[5-((R or S)-1-Amino-ethyl)-4-methyl-pyridin-3-yl]-1-methyl-3,4-dihydro-1H-quinolin-2-one hydrochloride]: the EC50 on human CYP11B2 stood at 0.25 µM; at human CYP11B1, 15 µM.
The like results for `Cc1noc(C)c1C(=O)NCc1cncc(-c2ccc3c(c2)CCC(=O)N3)c1` [Example 141, 3,5-Dimethyl-isoxazole-4-carboxylic acid [5-(2-oxo-1,2,3,4-tetrahydro-quinolin-6-yl)-pyridin-3-ylmethyl]-amide] were, in that order, 0.856 µM and 19.9 µM.
Regarding `CCS(=O)(=O)NCc1cncc(-c2cc3c4c(c2)CCN4C(=O)CC3)c1` [Example 234, Ethanesulfonic acid [5-(4-oxo-1,2,5,6-tetrahydro-4H-pyrrolo[3,2,1-ij]quinolin-8-yl)-pyridin-3-ylmethyl]-amide], the concentration for a half-maximal effect (EC50) is 0.027 µM on human CYP11B2 and 2.26 µM on human CYP11B1.
For `CN1C(=O)CCc2cc(-c3cncc(CNC(=O)c4cc(Cl)nnc4Cl)c3)c(F)cc21` [Example 132], the values for the concentration giving a half-maximal response (EC50) on human CYP11B2 and at human CYP11B1 were 0.029 µM and 4.8 µM, respectively.
Turning to `CN1C(=O)CCc2cc(-c3cncc(C4(NC(=O)c5ncccc5Cl)CC4)c3)ccc21` [Example 137, 3-Chloro-pyridine-2-carboxylic acid {1-[5-(1-methyl-2-oxo-1,2,3,4-tetrahydro-quinolin-6-yl)-pyridin-3-yl]-cyclopropyl}-amide], the results for the EC50 on human CYP11B2 and at human CYP11B1 were 0.006 µM and 0.872 µM, respectively.
The like results for `CCS(=O)(=O)N1CCC[C@H]1COc1cncc(-c2ccc3c(c2)CCC(=O)N3C)c1` [Example 167, 6-[5-((S)-1-Ethanesulfonyl-pyrrolidin-2-ylmethoxy)-pyridin-3-yl]-1-methyl-3,4-dihydro-1H-quinolin-2-one] were, in that order, 0.018 µM and 0.898 µM.
The like results for `CN1C(=O)CCc2cc(-c3cncc(OC4CCN(C(=O)OC(C)(C)C)CC4)c3)ccc21` [Example 50, 4-[5-(1-Methyl-2-oxo-1,2,3,4-tetrahydro-quinolin-6-yl)-pyridin-3-yloxy]-piperidine-1-carboxylic acid tert-butyl ester] were, in that order, 0.003 µM and 0.024 µM.
With `CN1C(=O)CCc2cc(-c3cncc(OC4CN(C(=O)OC(C)(C)C)C4)c3)ccc21` [Example 47, 3-[5-(1-Methyl-2-oxo-1,2,3,4-tetrahydro-quinolin-6-yl)-pyridin-3-yloxy]-azetidine-1-carboxylic acid tert-butyl ester], the 50% effective concentration (EC50) worked out at 0.003 µM at human CYP11B2 and 0.061 µM on human CYP11B1.
The like results for `CN1C(=O)CCc2cc(-c3cncc(O[C@H]4CCN(C(=O)OC(C)(C)C)C4)c3)ccc21` [Example 48, (S)-3-[5-(1-Methyl-2-oxo-1,2,3,4-tetrahydro-quinolin-6-yl)-pyridin-3-yloxy]-pyrrolidine-1-carboxylic acid tert-butyl ester] were, in that order, 0.049 µM and 0.392 µM.
The like results for `CN1C(=O)CCc2cc(-c3cncc(CNS(=O)(=O)c4ccc(Cl)c(Cl)c4)c3)ccc21` [Example 156, 3,4-Dichloro-N-[5-(1-methyl-2-oxo-1,2,3,4-tetrahydro-quinolin-6-yl)-pyridin-3-ylmethyl]-benzenesulfonamide] were, in that order, 0.155 µM and 1.37 µM.
